Test system: immunocompetent FVB mice
Assay: Tolerability study in immunocompetent mice
Assay type: in vivo
Excerpt: Five- to six-week-old immunocompetent, female FVB mice were purchased from Charles River Laboratories (Sulzfeld, Germany). After an acclimatization period of at least 7 days, the mice (n = 5 per group) were intravenously injected with 30 kBq [^225Ac]Ac-SibuDAB or 30 kBq [^225Ac]Ac-PSMA-617 and additional mice (n = 7 per group) remained untreated as controls. Mice were monitored by measuring their body mass and potential signs of pain or unease three times a week (Supplementary Material: Section S7). The mice were euthanized on Day 10, Day 28 or on Day 56, respectively, and variable parameters were assessed from blood and tissue samples.
Hematological analysis was performed using blood samples taken by cardiac puncture immediately after euthanasia. Blood and bone marrow smears were prepared and stained using the Pappenheim protocol. The assessment was carried out by a board-certified veterinary anatomic pathologist (AnaPath Services GmbH, Liestal, Switzerland). Blood plasma parameters were determined in plasma after centrifugation of blood samples obtained shortly before euthanasia (Supplementary Material: Section S7).
Tissue sections of formalin-fixed paraffin-embedded (FFPE) spleen, salivary glands and kidneys were prepared and stained with hematoxylin and eosin (H&E) by AnaPath Services GmbH (Liestal, Switzerland). The tissues were analyzed by a board certified veterinary pathologist using a pre-defined scoring system (Supplementary Material: Section S7). […]
The percentage of radioligand bound to mouse or human plasma (A bound) was plotted against the molar ratios of MSA/HSA to radioligand and fitted with a nonlinear regression curve (specific binding with Hill slope, Bmax set to 100%) using GraphPad Prism software (version 8) to obtain the half maximum binding (B 50).
Results: The results are reported in the main article.
Purpose: A tolerability study with normal, immunocompetent FVB mice was con-ducted in order to assess potential side effects to the bone marrow, spleen, salivary glands and kidneys after the application of high activities of the 225Ac-labeled PSMA radioligands.
Methods: Monitoring Body Mass and Signs of Unease: Mice were monitored by meas-uring their body mass (BM) three times a week. The body masses were expressed as the relative body mass, defined as [BMx/BM0], where BMx is the body mass in grams on a given Day x and BM0 is the body mass in grams on Day 0. Endpoint criteria, defined as (i) >15% loss in body mass, (ii) signs of unease and pain or a combination thereof based on a scoring system, were not reached in this stu dy.
Hematology: Blood cell counts were determined in blood samples taken by cardiac puncture immediately after euthanasia and collected in EDTA tubes (Microvette® 100 K3 EDTA, Sarstedt, Germany). Leukocyte, lymphocyte, erythrocyte and thrombocyte counts as well as hemoglobin and hematocrit values were determined using a hematology ana-lyzer (VetScan HM5, Abaxis, United States). Blood smears were prepared on glass slides with cardiac blood. The bone marrow was collected from the femur, diluted in FCS/H2O (2:1 v/v) and smeared onto microscopy slides using a paintbrush. The slides were stained with a May Grünwald solution and subsequently with diluted Giemsa solution using the Pappenheim method and covered with coverslips using mounting medium (Pertex).
The assessment of potential morphological ch anges of the blood cells and counting of the subgroups of leukocytes was performed by a board-certified veterinary pathologist (Ana-Path Services GmbH, Liestal, Switzerland).
Histopathological Analysis: Spleen, salivary glands and kidneys were formalin-fixed and paraffin-embedded. Tissue sections were stained with hematoxylin & eosin (H&E) […]
Blood Plasma Parameters: Blood plasma parameters were determined in plasma ob-tained from centrifuged retrobulbar blood samples collected in lithium-heparin tubes (Mi-crovette® 200 LH, SARSTEDT). The concentrations of blood urea nitrogen (BUN), alkaline […]

O=C([O-])CN1CCN(CC(=O)[O-])CCN(CC(=O)NCC2CCC(C(=O)NC(Cc3ccc4ccccc4c3)C(=O)NCCCCC(NC(=O)NC(CCC(=O)O)C(=O)O)C(=O)O)CC2)CCN(CC(=O)[O-])CC1.[225Ac+3] (stereo not shown) [[^225Ac]Ac-PSMA-617]
Tolerability (body mass) (30 kBq per mouse, until Day 56): well tolerated
Kidneys: Hyperplasia/hypertrophy, tubular, incidence (Day 10, 30 kBq): 2
Kidneys: Hyperplasia/hypertrophy, tubular, score average (Day 10, 30 kBq): 1.0
Kidneys: Hypertrophy/hyperplasia, tubular with ectasia, incidence (Day 10, 30 kBq): 0
Kidneys: Hypertrophy/hyperplasia, tubular with ectasia, score average (Day 10, 30 kBq): 0.0
Kidneys: Inflammatory cells, interstitium, incidence (Day 10, 30 kBq): 0
Kidneys: Inflammatory cells, interstitium, score average (Day 10, 30 kBq): 0.0
Kidneys: Inflammatory cells, pelvis, incidence (Day 10, 30 kBq): 0
Kidneys: Inflammatory cells, pelvis, score average (Day 10, 30 kBq): 0.0
Kidneys: Mineralization, papilla, incidence (Day 10, 30 kBq): 0
Kidneys: Mineralization, papilla, score average (Day 10, 30 kBq): 0.0
Kidneys: Tubular basophilia, incidence (Day 10, 30 kBq): 0
Kidneys: Tubular basophilia, score average (Day 10, 30 kBq): 0.0
Salivary glands: Ductal hyperplasia with inflammatory cells, incidence (Day 10, 30 kBq): 0
Salivary glands: Ductal hyperplasia with inflammatory cells, score average (Day 10, 30 kBq): 0.0
Salivary glands: Hypertrophy acinar, sublingual, incidence (Day 10, 30 kBq): 0
Salivary glands: Hypertrophy acinar, sublingual, score average (Day 10, 30 kBq): 0.0
Salivary glands: Mononuclear cell foci, incidence (Day 10, 30 kBq): 1
Salivary glands: Mononuclear cell foci, score average (Day 10, 30 kBq): 1.0
Salivary glands: Necrosis, multifocal, serous acinar cells, incidence (Day 10, 30 kBq): two out of five
Salivary glands: Necrosis, multifocal, serous acinar cells, score average (Day 10, 30 kBq): 1.0
Salivary glands: Vacuolation, incidence (Day 10, 30 kBq): 0
Salivary glands: Vacuolation, score average (Day 10, 30 kBq): 0.0
Spleen: Extramedullary hematopoiesis, incidence (Day 10, 30 kBq): 5
Spleen: Extramedullary hematopoiesis, score average (Day 10, 30 kBq): 1.0
Spleen: Hyperplasia, lymphoid, incidence (Day 10, 30 kBq): 1
Spleen: Hyperplasia, lymphoid, score average (Day 10, 30 kBq): 1.0
Spleen: Pigment, incidence (Day 10, 30 kBq): 5
Spleen: Pigment, score average (Day 10, 30 kBq): 1.0
mice with relative increase of neutrophilic blasts (metamyelocytes) in peripheral blood (Day 10, 30 kBq): two out of five
myelopoiesis in bone marrow smears (group value) (Day 10, 30 kBq): 62%
Salivary glands: Necrosis, multifocal, serous acinar cells, incidence (Day 10, 30 kBq, listed as [225Ac]Ac-PSMA-617): 2
Blood smear, Notes (Day 10, mouse M1): More neutrophilic blasts (Metamyelocyte)
Bone marrow % E (Day 10, mouse M1): 50%
Bone marrow % M (Day 10, mouse M1): 50%
Blood smear, Notes (Day 10, mouse M2): More neutrophilic blasts (Metamyelocyte)
Bone marrow % E (Day 10, mouse M2): 60%
Bone marrow % M (Day 10, mouse M2): 40%
Bone marrow % E (Day 10, mouse M3): 20%
Bone marrow % M (Day 10, mouse M3): 80%
Bone marrow smear, Notes (Day 10, mouse M3): More blasts, neutrophilic row
Bone marrow % E (Day 10, mouse M4): 30%
Bone marrow % M (Day 10, mouse M4): 70%
Bone marrow smear, Notes (Day 10, mouse M4): More blasts, neutrophilic row
Bone marrow % E (Day 10, mouse M5): 30%
Bone marrow % M (Day 10, mouse M5): 70%
Bone marrow smear, Notes (Day 10, mouse M5): More blasts, neutrophilic row
Albumin concentration in blood plasma (Day 28, 30 kBq): 23 g/L
Blood urea nitrogen (Day 28, 30 kBq): 8.7 ± 1.1 mmol/L
Erythrocyte counts (Day 28, 30 kBq): 8.7 ± 0.3 × 10^12/L
Hematocrit (Day 28, 30 kBq): 43 ± 3%
Hemoglobin (Day 28, 30 kBq): 11.3 ± 0.5 g/dL
Kidneys: Hyperplasia/hypertrophy, tubular, incidence (Day 28, 30 kBq): 1
Kidneys: Hyperplasia/hypertrophy, tubular, score average (Day 28, 30 kBq): 1.0
Kidneys: Hypertrophy/hyperplasia, tubular with ectasia, incidence (Day 28, 30 kBq): 0
Kidneys: Hypertrophy/hyperplasia, tubular with ectasia, score average (Day 28, 30 kBq): 0.0
Kidneys: Inflammatory cells, interstitium, incidence (Day 28, 30 kBq): 0
Kidneys: Inflammatory cells, interstitium, score average (Day 28, 30 kBq): 0.0
Kidneys: Inflammatory cells, pelvis, incidence (Day 28, 30 kBq): 0
Kidneys: Inflammatory cells, pelvis, score average (Day 28, 30 kBq): 0.0
Kidneys: Mineralization, papilla, incidence (Day 28, 30 kBq): 1
Kidneys: Mineralization, papilla, score average (Day 28, 30 kBq): 1.0
Kidneys: Tubular basophilia, incidence (Day 28, 30 kBq): 1
Kidneys: Tubular basophilia, score average (Day 28, 30 kBq): 1.0
Salivary glands: Ductal hyperplasia with inflammatory cells, incidence (Day 28, 30 kBq): 0
Salivary glands: Ductal hyperplasia with inflammatory cells, score average (Day 28, 30 kBq): 0.0
Salivary glands: Hypertrophy acinar, sublingual, incidence (Day 28, 30 kBq): 0
Salivary glands: Hypertrophy acinar, sublingual, score average (Day 28, 30 kBq): 0.0
Salivary glands: Mononuclear cell foci, incidence (Day 28, 30 kBq): 1
Salivary glands: Mononuclear cell foci, score average (Day 28, 30 kBq): 1.0
Salivary glands: Necrosis, multifocal, serous acinar cells, incidence (Day 28, 30 kBq): all five
Salivary glands: Necrosis, multifocal, serous acinar cells, score average (Day 28, 30 kBq): 1.8
Salivary glands: Vacuolation, incidence (Day 28, 30 kBq): 0
Salivary glands: Vacuolation, score average (Day 28, 30 kBq): 0.0
Spleen: Extramedullary hematopoiesis, incidence (Day 28, 30 kBq): 5
Spleen: Extramedullary hematopoiesis, score average (Day 28, 30 kBq): 1.8
Spleen: Hyperplasia, lymphoid, incidence (Day 28, 30 kBq): 5
Spleen: Hyperplasia, lymphoid, score average (Day 28, 30 kBq): 1.0
Spleen: Pigment, incidence (Day 28, 30 kBq): 5
Spleen: Pigment, score average (Day 28, 30 kBq): 1.8
Salivary glands: Necrosis, multifocal, serous acinar cells, incidence (Day 28, 30 kBq, listed as [225Ac]Ac-PSMA-617): 5
Bone marrow % E (Day 28, mouse M1): 50%
Bone marrow % M (Day 28, mouse M1): 50%
Bone marrow % E (Day 28, mouse M2): 40%
Bone marrow % M (Day 28, mouse M2): 60%
Bone marrow % E (Day 28, mouse M3): 40%
Bone marrow % M (Day 28, mouse M3): 60%
Bone marrow % E (Day 28, mouse M4): 50%
Bone marrow % M (Day 28, mouse M4): 50%
Bone marrow % E (Day 28, mouse M5): 40%
Bone marrow % M (Day 28, mouse M5): 60%
Kidneys: Hyperplasia/hypertrophy, tubular, incidence (Day 56, 30 kBq): 1
Kidneys: Hyperplasia/hypertrophy, tubular, score average (Day 56, 30 kBq): 1.0
Kidneys: Hypertrophy/hyperplasia, tubular with ectasia, incidence (Day 56, 30 kBq): 0
Kidneys: Hypertrophy/hyperplasia, tubular with ectasia, score average (Day 56, 30 kBq): 0.0
Kidneys: Inflammatory cells, interstitium, incidence (Day 56, 30 kBq): 0
Kidneys: Inflammatory cells, interstitium, score average (Day 56, 30 kBq): 0.0
Kidneys: Inflammatory cells, pelvis, incidence (Day 56, 30 kBq): 0
Kidneys: Inflammatory cells, pelvis, score average (Day 56, 30 kBq): 0.0
Kidneys: Mineralization, papilla, incidence (Day 56, 30 kBq): 0
Kidneys: Mineralization, papilla, score average (Day 56, 30 kBq): 0.0
Kidneys: Tubular basophilia, incidence (Day 56, 30 kBq): 1
Kidneys: Tubular basophilia, score average (Day 56, 30 kBq): 1.0
Salivary glands: Ductal hyperplasia with inflammatory cells, incidence (Day 56, 30 kBq): 0
Salivary glands: Ductal hyperplasia with inflammatory cells, score average (Day 56, 30 kBq): 0.0
Salivary glands: Hypertrophy acinar, sublingual, incidence (Day 56, 30 kBq): 0
Salivary glands: Hypertrophy acinar, sublingual, score average (Day 56, 30 kBq): 0.0
Salivary glands: Mononuclear cell foci, incidence (Day 56, 30 kBq): 2
Salivary glands: Mononuclear cell foci, score average (Day 56, 30 kBq): 1.0
Salivary glands: Necrosis, multifocal, serous acinar cells, incidence (Day 56, 30 kBq): 0
Salivary glands: Necrosis, multifocal, serous acinar cells, score average (Day 56, 30 kBq): 0.0
Salivary glands: Vacuolation, incidence (Day 56, 30 kBq): 0
Salivary glands: Vacuolation, score average (Day 56, 30 kBq): 0.0
Spleen: Extramedullary hematopoiesis, incidence (Day 56, 30 kBq): 5
Spleen: Extramedullary hematopoiesis, score average (Day 56, 30 kBq): 1.4
Spleen: Hyperplasia, lymphoid, incidence (Day 56, 30 kBq): 0
Spleen: Hyperplasia, lymphoid, score average (Day 56, 30 kBq): 0.0
Spleen: Pigment, incidence (Day 56, 30 kBq): 5
Spleen: Pigment, score average (Day 56, 30 kBq): 2.0
Bone marrow % E (Day 56, mouse M1): 30%
Bone marrow % M (Day 56, mouse M1): 70%
Bone marrow % E (Day 56, mouse M2): 40%
Bone marrow % M (Day 56, mouse M2): 60%
Bone marrow % E (Day 56, mouse M3): 30%
Bone marrow % M (Day 56, mouse M3): 70%
Bone marrow % E (Day 56, mouse M4): 40%
Bone marrow % M (Day 56, mouse M4): 60%
